Laboratory results as given in patent US20200371122A1, “BIOMARKER FOR SENESCENT CELLS” (Buck Institute for Research on Aging, priority 2017, published 2020).

Legend:
SASP factors = assay: qPCR of SASP and PTGS mRNAs in non-senescent cells treated with eicosanoids; assay type: cell-based, human; details: 10 μM, for PGJ2 and 15d-PGJ2 most factors except VEGF and PDGF
Protocol: RNA was extracted from cells or tissues using commercially available kits (Isolate II—Bioline for cells; Direct-zol—Zymo for tissues) according to the manufacturer's instructions. cDNA synthesis was performed using a High Capacity cDNA Reverse Transcription Kit (Thermo Fisher) according to the manufacturer's instructions. Quantitative PCR was performed on a LightCycler 480 II (Roche) using primers and probes designed for the Universal Probe Library. Primers and probes used for human transcripts were ACTB: 5′-CCAACCGCGAGAAGATGA (SEQ ID NO:1), 5′-TCCATCACGATGCCAGTG (SEQ ID NO:2), Probe #64; TUBA: 5′-cttcgtctccgccatcag (SEQ ID NO:3), 5′-ttgccaatctggacacca (SEQ ID NO:4), Probe #58; ALOX5: 5′-[…] (SEQ ID NO:5), 5′-[…] (SEQ ID NO:6), Probe #64; ALOX5AP: 5′-ggtctgcggggctacttt (SEQ ID NO:7), 5′-[…] (SEQ ID NO:8), Probe #18; ALOX12: 5′-[…] (SEQ ID NO:9), 5′-agccaggtcgtcaggag (SEQ ID NO:10), Probe #32; ALOX15: 5′-[…] (SEQ ID NO:11), 5′-[…] (SEQ ID NO:12), Probe #76; ALOX15B: 5′-[…] (SEQ ID NO:13), 5′-actgggaggcgaagaagg (SEQ ID NO:14), Probe #51; AKR1C1: 5′-catgcctgtcctgggattt (SEQ ID NO:15), 5′-[…] (SEQ ID NO:16), Probe #49; AKR1C2: 5′-ctatgcgcctgcagaggt (SEQ ID NO:17), 5′-[…] (SEQ ID NO:18), Probe #31; AKR1C3: 5′-[…] (SEQ ID NO:19), 5′-[…] (SEQ ID NO:20), Probe #78; CYSLTR2: 5′-[…] (SEQ ID NO:21), 5′-[…] (SEQ ID NO:22), Probe #18; DPEP1: 5′-gacgtcctgaggctggtg (SEQ ID NO:23), 5′-[…] (SEQ ID NO:24), Probe #9 (SEQ ID NO:25), ELOVL2: 5′-[…] (SEQ ID NO:26), 5′-[…] (SEQ ID NO:27), Probe #53; ELOVL4: 5′-catttggcccatggattc (SEQ ID NO:28), 5′-[…] (SEQ ID NO:29), Probe #31; ELOVL5: 5′-cccttccatgcgtccata (SEQ ID NO:30), 5′-[…] (SEQ ID NO:31), Probe #31; EPHX2: 5′-ttctgctggacaccctgaa (SEQ ID NO:32), 5′-[…] (SEQ ID NO:33), Probe #45; GPX4: 5′-ttcccgtgtaaccagttcg (SEQ ID NO:34), 5′-[…] (SEQ ID NO:35), Probe #36; LTA4H: 5′-ctgctctcacggtccagtc (SEQ ID NO:36), 5′-[…] (SEQ ID NO:37), Probe #64; LTBR2: 5′-[…] (SEQ ID NO:38), 5′-[…] (SEQ ID NO:39), Probe #33; LTC4S: 5′-[…] (SEQ ID NO:40), 5′-[…] (SEQ ID NO:41), Probe #18; PTGDS: 5′-[…] (SEQ ID NO:42), 5′-[…] […]

[1] = tested on: naïve nonsenescent IMR-90 fibroblasts; assay: Conditioned media from senescent cells applied to naive IMR-90 fibroblasts (Col1a2, ACTA2 qPCR); assay type: cell-based, human
Protocol: RNA was extracted from cells or tissues using commercially available kits (Isolate II—Bioline for cells; Direct-zol—Zymo for tissues) according to the manufacturer's instructions. cDNA synthesis was performed using a High Capacity cDNA Reverse Transcription Kit (Thermo Fisher) according to the manufacturer's instructions. Quantitative PCR was performed on a LightCycler 480 II (Roche) using primers and probes designed for the Universal Probe Library. Primers and probes used for human transcripts were ACTB: 5′-CCAACCGCGAGAAGATGA (SEQ ID NO:1), 5′-TCCATCACGATGCCAGTG (SEQ ID NO:2), Probe #64; TUBA: 5′-cttcgtctccgccatcag (SEQ ID NO:3), 5′-ttgccaatctggacacca (SEQ ID NO:4), Probe #58; ALOX5: 5′-[…] (SEQ ID NO:5), 5′-[…] (SEQ ID NO:6), Probe #64; ALOX5AP: 5′-ggtctgcggggctacttt (SEQ ID NO:7), 5′-[…] (SEQ ID NO:8), Probe #18; ALOX12: 5′-[…] (SEQ ID NO:9), 5′-agccaggtcgtcaggag (SEQ ID NO:10), Probe #32; ALOX15: 5′-[…] (SEQ ID NO:11), 5′-[…] (SEQ ID NO:12), Probe #76; ALOX15B: 5′-[…] (SEQ ID NO:13), 5′-actgggaggcgaagaagg (SEQ ID NO:14), Probe #51; AKR1C1: 5′-catgcctgtcctgggattt (SEQ ID NO:15), 5′-[…] (SEQ ID NO:16), Probe #49; AKR1C2: 5′-ctatgcgcctgcagaggt (SEQ ID NO:17), 5′-[…] (SEQ ID NO:18), Probe #31; AKR1C3: 5′-[…] (SEQ ID NO:19), 5′-[…] (SEQ ID NO:20), Probe #78; CYSLTR2: 5′-[…] (SEQ ID NO:21), 5′-[…] (SEQ ID NO:22), Probe #18; DPEP1: 5′-gacgtcctgaggctggtg (SEQ ID NO:23), 5′-[…] (SEQ ID NO:24), Probe #9 (SEQ ID NO:25), ELOVL2: 5′-[…] (SEQ ID NO:26), 5′-[…] (SEQ ID NO:27), Probe #53; ELOVL4: 5′-catttggcccatggattc (SEQ ID NO:28), 5′-[…] (SEQ ID NO:29), Probe #31; ELOVL5: 5′-cccttccatgcgtccata (SEQ ID NO:30), 5′-[…] (SEQ ID NO:31), Probe #31; EPHX2: 5′-ttctgctggacaccctgaa (SEQ ID NO:32), 5′-[…] (SEQ ID NO:33), Probe #45; GPX4: 5′-ttcccgtgtaaccagttcg (SEQ ID NO:34), 5′-[…] (SEQ ID NO:35), Probe #36; LTA4H: 5′-ctgctctcacggtccagtc (SEQ ID NO:36), 5′-[…] (SEQ ID NO:37), Probe #64; LTBR2: 5′-[…] (SEQ ID NO:38), 5′-[…] (SEQ ID NO:39), Probe #33; LTC4S: 5′-[…] (SEQ ID NO:40), 5′-[…] (SEQ ID NO:41), Probe #18; PTGDS: 5′-[…] (SEQ ID NO:42), 5′-[…] (SEQ ID NO:43), Probe #36; PTGES: 5′-agagatgcctgcccacag (SEQ ID NO:44), 5′-tggccaccacgtacatctt (SEQ ID NO:45), Probe #4; PTGES2: 5′-[…] (SEQ ID NO:46), 5′-[…] (SEQ ID NO:47), Probe #49; PTGES3 (SEQ ID NO:48), 5′-[…] (SEQ ID NO:49), 5′-[…] (SEQ ID NO:50), Probe #48; PTGIS: 5′-[…] (SEQ ID NO:51), 5′-[…] (SEQ ID NO:52), Probe #45; PTGR1: 5′-atgatggggcagcaagtg (SEQ ID NO:53), 5′-cccatcagaaatggagtgc (SEQ ID NO:54), Probe #64; PTGS1: 5′-[…] (SEQ ID NO:55), 5′-gtggtggtccatgttcctg (SEQ ID NO:56), Probe #81; PTGS2: 5′-gatccccagggctcaaac (SEQ ID NO:57), 5′-[…] (SEQ ID NO:58), Probe #61; TBXAS1: 5′-[…] (SEQ ID NO:59), 5′-tgcctcccgtgtgaatct (SEQ ID NO:60), Probe #73; AREG: 5′-[…] (SEQ ID NO:61), 5′-[…] […]

`CCCCC/C=C/C=C1/C(=O)C=C[C@@H]1C/C=C\CCCC(=O)O` [15d-PGJ2] was tested, and the “SASP factor mRNAs” value (SASP factors) was “strongly induced”.
With `CS(=O)(=O)Nc1ccc([N+](=O)[O-])cc1OC1CCCCC1` [NS-398] the “decline of ACTA2 induction at Day 20 relative to Day 2” value ([1]; Day 20 CM) was “abrogated this decline”.
`CC(c1cc2ccccc2s1)N(O)C(N)=O` (centres unmarked) [zileuton] was tested, and the “collagen expression induced by CM from senescent cells” value ([1]; Day 2 CM, with or without TGF-beta, donor cells treated 24 h) was “prevented this effect”, the “collagen expression induced by CM from senescent cells” value ([1]; Day 20 CM in the presence of TGF-beta) was “again prevented” and the “smooth muscle actin expression (ACTA2)” value ([1]; regardless of time point) was “no effect”.
